Results on 3 molecules are retold here after US20050053612A1, “Nucleotide regulation of immune responses” (priority 2003, published 2005).

“Also recorded” adds a separate entry of the source.

The test system of data set [1] is XS106 cells. In words: FACS analysis of I-A, CD80 and CD86 expression. It counts as cell-based, mouse. The note with it: for effect on ATPγS-enhanced CD80 expression: pre-incubated with 300 μM oATP for 2 hours, then GM-CSF/LPS and ATPγS.
Data set [2] has as its system XS106 cells. In words: Cytokine content of supernatants by ELISA. It is filed as cell-based, mouse.
A further data set deals with BALB/c mice. Kind of data set: Contact hypersensitivity (CHS) assay, DNFB, ear swelling. The note with it: mouse, in vivo.
In data set [3] the test system is group A streptococcus (GAS). Also on record: species or system Streptococcus pyogenes. The note with it: in vivo.
The next data set relates to CAF1 mice. In words: Tumor vaccine: delayed-type hypersensitivity to tumor-associated antigens (TAA), footpad swelling. The note with it: mouse, in vivo.
In another data set the test system is Langerhans cells. In words: HDK-1 assay: antigen presentation by Langerhans cells, IFNγ by ELISA. It is filed as cell-based, BALB/c mice.

For the molecule `Nc1ncnc2c1ncn2[C@@H](C=O)O[C@@H](C=O)COP(=O)(O)OP(=O)(O)OP(=O)(O)O` [oxidized ATP, reference compound], the “effect on ATPγS-enhanced CD80 expression” value in the data set on XS106 cells [1] is reported as “inhibits the effect of ATPγS on CD80 expression”; in the data set on XS106 cells [1] (listed as oATP) it was “inhibited”. In addition, the “effect on ATPγS-induced IL-1β secretion” value with XS106 cells [2] (data not shown) is “significantly inhibited”.

In the case of `Nc1ncnc2c1ncn2[C@@H]1O[C@H](COP(=O)(O)OP(=O)(O)OP(=O)(O)O)[C@@H](O)[C@H]1O` [ATP], the “secretion of IL-1β” value in the data set on XS106 cells [2] (ATP, significant at 10^−3 M and 10^−4 M, NS at 10^−5 M and 10^−6 M) is “greatly augmented secretion”. Moreover, in the data set on XS 106A cell, the cell viability result was “No effect on viability”.

As to `Nc1ncnc2c1ncn2[C@@H]1O[C@H](COP(=O)(O)OP(=O)(O)OP(O)(O)=S)[C@@H](O)[C@H]1O` [ATPγS], in the data set on BALB/c mice, the “ear swelling (contact hypersensitivity response)” value is listed as “significantly augmented; also recorded: greatest ear swelling; also recorded: increased response upon challenge”; the “ear swelling (contact hypersensitivity response), ATPγS injected at a site distant from that of immunization” value is recorded as “no effect on the response”; the “ear swelling, ATPγS only (not immunized with DNFB)” value is on record as “least ear swelling”. Also, in data set [3], the “lesion size vs mice immunized with killed GAS alone” value is “much smaller lesions” and the “mean areas of the lesions” value was 2.80±1.11 mm^2. Further, in the data set with CAF1 mice, the “delayed-type hypersensitivity (DTH) response, footpad swelling” value is reported as “significantly enhanced; also recorded: significantly greater DTH response”. Further, in the data set with Langerhans cells, the “IFNγ release by HDK-1 cells (presentation of KLH by LCs)” value was “dose-dependent increase; also recorded: augmented the ability of LCs to present KLH”; the “IFNγ, LCs incubated with ATPγS in the absence of KLH” value is recorded as “only background levels; also recorded: did not significantly change the background response”; the “concentration at which the IFNγ response begins to decrease” value was “greater than 10^−6 molar”. In the data set on XS106 cells [1], the “expression of CD80” value is “enhanced; also recorded: enhances expression”, the “expression of CD86” value is on record as “enhanced; also recorded: enhances expression” and the “expression of I-A” value was “enhanced; also recorded: enhances expression”. In addition, in the data set with XS106 cells [2], the “release of IL-1β” value is on record as “significantly increased; also recorded: significant increase”, the “release of IL-10” value is on record as “decreasing release; also recorded: decrease” and the “release of IL-12” value is on record as “significantly increased; also recorded: significant increase”. For the same molecule, the “concentrations that induce apoptosis” value with XS106 is “greater than 10^−6 molar”.
